Experimental data taken from patent US8952024B2, “Herbicidal pyrimidone derivatives” (E I du Pont de Nemours and Company, priority 2009, dated 2015).

Tests used:
Type in all cases: in vivo
[1] = test system: johnsongrass (Sorghum halepense); assay: Test B pre-/postemergence plant response; conditions: for Johnsongrass plant response rating (0 to 100 scale): 62 g ai/ha, postemergence, 0 is no effect, 100 is complete control; for Plant response rating, Johnsongrass: Postemergence
Method in brief: (§1)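 Ratings reflect visual comparison with untreated controls 13 to 15 days after application, from 0 (no effect) to 100 (complete control). Application was preemergence to seeded loam/sand soil or postemergence to 1- to 4-leaf plants, with compound in a non-phytotoxic, surfactant-containing solvent.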

[2] = test system: cocklebur (Xanthium strumarium); assay: Test B pre-/postemergence plant response; conditions: for Cocklebur plant response rating (0 to 100 scale): 62 g ai/ha, postemergence, 0 is no effect, 100 is complete control; for Plant response rating, Cocklebur: Postemergence
Method in brief: as §1

[3] = test system: giant foxtail (Setaria faberii); assay: Test B pre-/postemergence plant response; conditions: for Foxtail, Giant plant response rating (0 to 100 scale): 62 g ai/ha, postemergence, 0 is no effect, 100 is complete control; for Plant response rating, Foxtail, Giant: Postemergence
Method in brief: as §1

[4] = test system: blackgrass (Alopecurus myosuroides); assay: Test B pre-/postemergence plant response; conditions: for Blackgrass plant response rating (0 to 100 scale): 62 g ai/ha, postemergence, 0 is no effect, 100 is complete control; for Plant response rating, Blackgrass: Postemergence
Method in brief: as §1

soybean (Glycine max) = assay: Test B pre-/postemergence plant response; conditions: for Soybean plant response rating (0 to 100 scale): 62 g ai/ha, postemergence, 0 is no effect, 100 is complete control; for Plant response rating, Soybean: Postemergence
Method in brief: as §1

[5] = test system: bermudagrass (Cynodon dactylon); assay: Test B pre-/postemergence plant response; conditions: for Bermudagrass plant response rating (0 to 100 scale): 62 g ai/ha, postemergence, 0 is no effect, 100 is complete control; for Plant response rating, Bermudagrass: Postemergence
Method in brief: as §1

wild oat (Avena fatua) = assay: Test B pre-/postemergence plant response; conditions: for Oat, Wild plant response rating (0 to 100 scale): 62 g ai/ha, postemergence, 0 is no effect, 100 is complete control; for Plant response rating, Oat, Wild: Postemergence
Method in brief: as §1

kochia (Kochia scoparia) = assay: Test B pre-/postemergence plant response; conditions: for Kochia plant response rating (0 to 100 scale): 62 g ai/ha, postemergence, 0 is no effect, 100 is complete control; for Plant response rating, Kochia: Postemergence
Method in brief: as §1

[6] = test system: morningglory (Ipomoea coccinea); assay: Test B pre-/postemergence plant response; conditions: for Morningglory plant response rating (0 to 100 scale): 62 g ai/ha, postemergence, 0 is no effect, 100 is complete control; for Plant response rating, Morningglory: Postemergence
Method in brief: as §1

corn (Zea mays) = assay: Test B pre-/postemergence plant response; conditions: for Corn plant response rating (0 to 100 scale): 62 g ai/ha, postemergence, 0 is no effect, 100 is complete control; for Plant response rating, Corn: Postemergence
Method in brief: as §1

[7] = test system: windgrass (Apera spica-venti); assay: Test B postemergence plant response; conditions: for Windgrass plant response rating (0 to 100 scale): 62 g ai/ha, postemergence, 0 is no effect, 100 is complete control; for Plant response rating, Windgrass: Postemergence
Method in brief: (§2)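 Plants at the 1- to 4-leaf stage (2 to 18 cm tall), grown in pots of peat moss/vermiculite medium with wetting agent and starter nutrients, received postemergence applications of test chemicals. After 13 to 15 days in a greenhouse, injury was rated visually against untreated controls on a 0 (no effect) to 100 (complete control) scale.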

[8] = test system: chickweed (Stellaria media); assay: Test B postemergence plant response; conditions: for Chickweed plant response rating (0 to 100 scale): 62 g ai/ha, postemergence, 0 is no effect, 100 is complete control; for Plant response rating, Chickweed: Postemergence
Method in brief: as §2

[9] = test system: canarygrass (Phalaris minor); assay: Test B postemergence plant response; conditions: for Canarygrass plant response rating (0 to 100 scale): 62 g ai/ha, postemergence, 0 is no effect, 100 is complete control; for Plant response rating, Canarygrass: Postemergence
Method in brief: as §2

[10] = test system: winter barley (Hordeum vulgare); assay: Test B postemergence plant response; conditions: for Barley plant response rating (0 to 100 scale): 62 g ai/ha, postemergence, 0 is no effect, 100 is complete control; for Plant response rating, Barley: Postemergence
Method in brief: as §2

[11] = 31 g ai/ha, 0 to 100 scale (0 no effect, 100 complete control)
[12] = 125 g ai/ha, scale 0 to 100 (0 no effect, 100 complete control)
[13] = 250 g ai/ha, scale 0 to 100 (0 no effect, 100 complete control), 13 to 15 days

COCCCn1c(-c2cccc(Br)c2)ncc(C(=O)C2=C(O)CCCC2=O)c1=O [Compound 140]
Johnsongrass plant response rating (0 to 100 scale) ([1]; 13 to 15 days): 15
Plant response rating, Johnsongrass [1, 11]: 10
Plant response rating, Johnsongrass [1, 12]: 35
Plant response rating, Johnsongrass [1, 13]: 45
Cocklebur plant response rating (0 to 100 scale) ([2]; 13 to 15 days): 15
Plant response rating, Cocklebur [2, 11]: 0
Plant response rating, Cocklebur [2, 12]: 65
Plant response rating, Cocklebur [2, 13]: 95
Foxtail, Giant plant response rating (0 to 100 scale) ([3]; 13 to 15 days): 75
Plant response rating, Foxtail, Giant [3, 11]: 65
Plant response rating, Foxtail, Giant [3, 12]: 80
Plant response rating, Foxtail, Giant [3, 13]: 90
Blackgrass plant response rating (0 to 100 scale) ([4]; 13 to 15 days): 0
Plant response rating, Blackgrass [4, 11]: 0
Plant response rating, Blackgrass [4, 12]: 5
Plant response rating, Blackgrass [4, 13]: 5
Soybean plant response rating (0 to 100 scale) (soybean (Glycine max); 13 to 15 days): 60
Plant response rating, Soybean (soybean (Glycine max); [11]): 10
Plant response rating, Soybean (soybean (Glycine max); [12]): 75
Plant response rating, Soybean (soybean (Glycine max); [13]): 80
Bermudagrass plant response rating (0 to 100 scale) ([5]; 13 to 15 days): 75
Plant response rating, Bermudagrass [5, 11]: 60
Plant response rating, Bermudagrass [5, 12]: 85
Plant response rating, Bermudagrass [5, 13]: 90
Oat, Wild plant response rating (0 to 100 scale) (wild oat (Avena fatua); 13 to 15 days): 5
Plant response rating, Oat, Wild (wild oat (Avena fatua); [11]): 0
Plant response rating, Oat, Wild (wild oat (Avena fatua); [12]): 10
Plant response rating, Oat, Wild (wild oat (Avena fatua); [13]): 40
Kochia plant response rating (0 to 100 scale) (kochia (Kochia scoparia); 13 to 15 days): 10
Plant response rating, Kochia (kochia (Kochia scoparia); [11]): 0
Plant response rating, Kochia (kochia (Kochia scoparia); [12]): 10
Plant response rating, Kochia (kochia (Kochia scoparia); [13]): 35
Morningglory plant response rating (0 to 100 scale) ([6]; 13 to 15 days): 60
Plant response rating, Morningglory [6, 11]: 0
Plant response rating, Morningglory [6, 12]: 65
Plant response rating, Morningglory [6, 13]: 65
Corn plant response rating (0 to 100 scale) (corn (Zea mays); 13 to 15 days): 5
Plant response rating, Corn (corn (Zea mays); [11]): 0
Plant response rating, Corn (corn (Zea mays); [12]): 25
Plant response rating, Corn (corn (Zea mays); [13]): 45
Windgrass plant response rating (0 to 100 scale) ([7]; 13 to 15 days): 5
Plant response rating, Windgrass [7, 11]: 0
Plant response rating, Windgrass [7, 12]: 5
Plant response rating, Windgrass [7, 13]: 30
Chickweed plant response rating (0 to 100 scale) ([8]; 13 to 15 days): 10
Plant response rating, Chickweed [8, 11]: 0
Plant response rating, Chickweed [8, 12]: 45
Plant response rating, Chickweed [8, 13]: 75
Canarygrass plant response rating (0 to 100 scale) ([9]; 13 to 15 days): 0
Plant response rating, Canarygrass [9, 11]: 0
Plant response rating, Canarygrass [9, 12]: 5
Plant response rating, Canarygrass [9, 13]: 5
Barley plant response rating (0 to 100 scale) ([10]; 13 to 15 days): 0
Plant response rating, Barley [10, 11]: 0
Plant response rating, Barley [10, 12]: 0
Plant response rating, Barley [10, 13]: 0

CCCn1c(-c2cccc(Br)c2)ncc(C(=O)C2=C(O)CCCC2=O)c1=O [Compound 141]
Johnsongrass plant response rating (0 to 100 scale) ([1]; 13 to 15 days): 15
Plant response rating, Johnsongrass [1, 11]: 15
Plant response rating, Johnsongrass [1, 12]: 50
Plant response rating, Johnsongrass [1, 13]: 65
Cocklebur plant response rating (0 to 100 scale) ([2]; 13 to 15 days): 65
Plant response rating, Cocklebur [2, 11]: 40
Plant response rating, Cocklebur [2, 12]: 95
Plant response rating, Cocklebur [2, 13]: 100
Foxtail, Giant plant response rating (0 to 100 scale) ([3]; 13 to 15 days): 75
Plant response rating, Foxtail, Giant [3, 11]: 75
Plant response rating, Foxtail, Giant [3, 12]: 80
Plant response rating, Foxtail, Giant [3, 13]: 85
Blackgrass plant response rating (0 to 100 scale) ([4]; 13 to 15 days): 5
Plant response rating, Blackgrass [4, 11]: 5
Plant response rating, Blackgrass [4, 12]: 10
Plant response rating, Blackgrass [4, 13]: 25
Soybean plant response rating (0 to 100 scale) (soybean (Glycine max); 13 to 15 days): 70
Plant response rating, Soybean (soybean (Glycine max); [11]): 70
Plant response rating, Soybean (soybean (Glycine max); [12]): 75
Plant response rating, Soybean (soybean (Glycine max); [13]): 90
Bermudagrass plant response rating (0 to 100 scale) ([5]; 13 to 15 days): 85
Plant response rating, Bermudagrass [5, 11]: 80
Plant response rating, Bermudagrass [5, 12]: 85
Plant response rating, Bermudagrass [5, 13]: 90
Oat, Wild plant response rating (0 to 100 scale) (wild oat (Avena fatua); 13 to 15 days): 10
Plant response rating, Oat, Wild (wild oat (Avena fatua); [11]): 10
Plant response rating, Oat, Wild (wild oat (Avena fatua); [12]): 15
Plant response rating, Oat, Wild (wild oat (Avena fatua); [13]): 40
Kochia plant response rating (0 to 100 scale) (kochia (Kochia scoparia); 13 to 15 days): 65
Plant response rating, Kochia (kochia (Kochia scoparia); [11]): 20
Plant response rating, Kochia (kochia (Kochia scoparia); [12]): 85
Plant response rating, Kochia (kochia (Kochia scoparia); [13]): 90
Morningglory plant response rating (0 to 100 scale) ([6]; 13 to 15 days): 60
Plant response rating, Morningglory [6, 11]: 60
Plant response rating, Morningglory [6, 12]: 60
Plant response rating, Morningglory [6, 13]: 65
Corn plant response rating (0 to 100 scale) (corn (Zea mays); 13 to 15 days): 45
Plant response rating, Corn (corn (Zea mays); [11]): 0
Plant response rating, Corn (corn (Zea mays); [12]): 45
Plant response rating, Corn (corn (Zea mays); [13]): 45
Windgrass plant response rating (0 to 100 scale) ([7]; 13 to 15 days): 35
Plant response rating, Windgrass [7, 11]: 25
Plant response rating, Windgrass [7, 12]: 40
Plant response rating, Windgrass [7, 13]: 50
Chickweed plant response rating (0 to 100 scale) ([8]; 13 to 15 days): 85
Plant response rating, Chickweed [8, 11]: 60
Plant response rating, Chickweed [8, 12]: 90
Plant response rating, Chickweed [8, 13]: 95
Canarygrass plant response rating (0 to 100 scale) ([9]; 13 to 15 days): 0
Plant response rating, Canarygrass [9, 11]: 0
Plant response rating, Canarygrass [9, 12]: 5
Plant response rating, Canarygrass [9, 13]: 5
Barley plant response rating (0 to 100 scale) ([10]; 13 to 15 days): 0
Plant response rating, Barley [10, 11]: 0
Plant response rating, Barley [10, 12]: 5
Plant response rating, Barley [10, 13]: 5
